Broadly, the IC50 is the concentration needed to halve the response being measured.

This assay deals with T1, CXCR4 receptors (Homo sapiens, UniProt P61073).
T1 construct: expressing endogenous CXCR4 receptors; endogenous in cells; host or cells: CCRF-CEM (human T lymphoblast cells)
In words: CXCR4-CEM calcium flux assay, antagonist mode (inhibition of SDF-1α-induced calcium flux). Format: cell-based. The note with it: inhibition of calcium flux induced by 4 nM SDF-1α in CCRF-CEM cells. Summed up:
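CCRF-CEM cells were preincubated with compound (0.5% DMSO) for 25 min at room temperature, then stimulated with 4 nM SDF-1α. The resulting calcium flux was recorded by FDSS for 90 sec. Percent inhibition was calculated against an internal control compound, and background-corrected EC50 values were derived.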
(In general: Calcium assays in cells follow changes in intracellular calcium, usually with a dye or a luminescent sensor.)

T1 sequence (P61073 whole entry): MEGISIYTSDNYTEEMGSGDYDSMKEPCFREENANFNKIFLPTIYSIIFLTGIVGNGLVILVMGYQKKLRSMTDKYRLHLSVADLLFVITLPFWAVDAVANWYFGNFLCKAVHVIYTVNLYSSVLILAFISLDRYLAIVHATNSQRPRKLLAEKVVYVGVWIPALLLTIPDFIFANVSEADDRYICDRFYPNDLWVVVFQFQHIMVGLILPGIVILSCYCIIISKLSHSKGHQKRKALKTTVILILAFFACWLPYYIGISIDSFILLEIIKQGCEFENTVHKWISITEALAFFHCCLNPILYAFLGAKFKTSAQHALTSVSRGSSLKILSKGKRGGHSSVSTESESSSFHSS

Regarding `Cc1cccc(CN2CCN(c3nccc4nc(CN(C)[C@H]5CCCc6cccnc65)cn34)CC2)c1` [Example 52, (S)-N-methyl-N-[(5-{4-[(3-methylphenyl)methyl]piperazin-1-yl}imidazo[1,2-c]pyrimidin-2-yl)methyl]-5,6,7,8-tetrahydroquinolin-8-amine], the IC50 amounted to 2.9 nM. With `CN(Cc1cn2c(N3CCn4ccnc4C3)nccc2n1)[C@H]1CCCc2cccnc21` [Example 83, (S)-N-((5-(5,6-dihydroimidazo[1,2-a]pyrazin-7(8H)-yl)imidazo[1,2-c]pyrimidin-2-yl)methyl)-N-methyl-5,6,7,8-tetrahydroquinolin-8-amine] the figure was 150 nM; with `CN(Cc1cn2c(N3CCN[C@@H](CO)C3)nccc2n1)[C@H]1CCCc2cccnc21` [Example 85, ((R)-4-(2-((methyl((S)-5,6,7,8-tetrahydroquinolin-8-yl)amino)methyl)imidazo[1,2-c]pyrimidin-5-yl)piperazin-2-yl)methanol], 1.7 nM. Then `CC(C)CCN1CCN(c2nccc3nc(CN(C)[C@H]4CCCc5cccnc54)cn23)CC1` [Example 19, (S)-N-methyl-N-({5-[4-(3-methylbutyl)piperazin-1-yl]imidazo[1,2-c]pyrimidin-2-yl}methyl)-5,6,7,8-tetrahydroquinolin-8-amine], with 14 nM; and `CN(Cc1nc2ccnc(N3CCNCC3)n2c1CO)[C@H]1CCOc2cccnc21` [Example 71, (S)-(2-(((3,4-Dihydro-2H-pyrano[3,2-b]pyridin-4-yl)(methyl)amino)methyl)-5-(piperazin-1-yl)imidazo[1,2-c]pyrimidin-3-yl)methanol], with 2.7 nM; and `CN(Cc1cn2c(N3CCN(Cc4cncn4C)CC3)nccc2n1)[C@H]1CCCc2cccnc21` [Example 27, (S)-N-methyl-N-[(5-{4-[(1-methyl-1H-imidazol-5-yl)methyl]piperazin-1-yl}imidazo[1,2-c]pyrimidin-2-yl)methyl]-5,6,7,8-tetrahydroquinolin-8-amine], with 75 nM.

As for `CN(Cc1cn2c(N3CCN(C(=O)Nc4cccc(Cl)c4)CC3)nccc2n1)[C@H]1CCCc2cccnc21` [Example 68, N-(3-chlorophenyl)-4-[2-({methyl[(S)-5,6,7,8-tetrahydroquinolin-8-yl]amino}methyl)imidazo[1,2-c]pyrimidin-5-yl]piperazine-1-carboxamide], the half-maximal inhibitory concentration (IC50) worked out at 50 nM. With `CN(Cc1cn2c(N3CCN(CCc4ccc(O)cc4)CC3)nccc2n1)[C@H]1CCCc2cccnc21` [Example 61, 4-(2-{4-[2-({methyl[(S)-5,6,7,8-tetrahydroquinolin-8-yl]amino}methyl)imidazo[1,2-c]pyrimidin-5-yl]piperazin-1-yl}ethyl)phenol] the figure was 33 nM; with `CN(Cc1cn2c(N3CC4CNC4C3)nccc2n1)[C@H]1CCCc2cccnc21` (stereo partly drawn) [Example 89, (8S)-N-((5-(3,6-diazabicyclo[3.2.0]heptan-3-yl)imidazo[1,2-c]pyrimidin-2-yl)methyl)-N-methyl-5,6,7,8-tetrahydroquinolin-8-amine], 280 nM. For the compound `CN(Cc1cn2c(N3CCN(Cc4ccccc4)CC3)nccc2n1)[C@H]1CCCc2cccnc21` [Example 37, (S)-N-{[5-(4-benzylpiperazin-1-yl)imidazo[1,2-c]pyrimidin-2-yl]methyl}-N-methyl-5,6,7,8-tetrahydroquinolin-8-amine], the IC50 stood at 23 nM.

On to `CN(Cc1cn2c(N3CCOCC3)nccc2n1)[C@H]1CCCc2cccnc21` [Example 9, (S)—N-Methyl-N-((5-morpholinoimidazo[1,2-c]pyrimidin-2-yl)methyl)-5,6,7,8-tetrahydroquinolin-8-amine], for which the IC50 is 25500 nM. For `CN(Cc1cn2c(N3CCN(C4CCCCC4)CC3)nccc2n1)[C@H]1CCCc2cccnc21` [Example 23, (S)-N-{[5-(4-cyclohexylpiperazin-1-yl)imidazo[1,2-c]pyrimidin-2-yl]methyl}-N-methyl-5,6,7,8-tetrahydroquinolin-8-amine], the IC50 is 770 nM. Consider `CC(C)CN1CCN(c2nccc3nc(CN(C)[C@H]4CCCc5cccnc54)cn23)CC1` [Example 22, (S)-N-methyl-N-({5-[4-(2-methylpropyl)piperazin-1-yl]imidazo[1,2-c]pyrimidin-2-yl}methyl)-5,6,7,8-tetrahydroquinolin-8-amine], for which the IC50 was determined as 42 nM. Then `NCCCCN(Cc1cn2c(O)nccc2n1)[C@H]1CCCc2cccnc21` [Example 107, (S)-2-(((4-Aminobutyl)(5,6,7,8-tetrahydroquinolin-8-yl)amino)methyl)imidazo[1,2-c]pyrimidin-5-ol], with 29 nM. With `CN(Cc1cn2c(N3CCN(Cc4ccc(-c5ccccc5)cc4)CC3)nccc2n1)[C@H]1CCCc2cccnc21` [Example 47, (S)-N-methyl-N-[(5-{4-[(4-phenylphenyl)methyl]piperazin-1-yl}imidazo[1,2-c]pyrimidin-2-yl)methyl]-5,6,7,8-tetrahydroquinolin-8-amine] the figure was 9.7 nM; with `CN(Cc1cn2c(N3CCN(S(=O)(=O)c4cccnc4)CC3)nccc2n1)[C@H]1CCCc2cccnc21` [Example 41, (S)-N-methyl-N-({5-[4-(pyridine-3-sulfonyl)piperazin-1-yl]imidazo[1,2-c]pyrimidin-2-yl}methyl)-5,6,7,8-tetrahydroquinolin-8-amine], 7500 nM; with `CN(Cc1nc2ccnc(N3CCN4CCC[C@H]4C3)n2c1CO)[C@H]1CCCc2cccnc21` [Example 108, (5-((S)-Hexahydropyrrolo[1,2-a]pyrazin-2(1H)-yl)-2-((methyl((S)-5,6,7,8-tetrahydroquinolin-8-yl)amino)methyl)imidazo[1,2-c]pyrimidin-3-yl)methanol], 2.1 nM. For the compound `CN(Cc1cn2c(N3CCN(C(=O)Nc4cccnc4)CC3)nccc2n1)[C@H]1CCCc2cccnc21` [Example 45, 4-[2-({methyl[(S)-5,6,7,8-tetrahydroquinolin-8-yl]amino}methyl)imidazo[1,2-c]pyrimidin-5-yl]-N-(pyridin-3-yl)piperazine-1-carboxamide], the IC50 was found to be 66 nM. Then `CN(Cc1cn2c(N3CCN(Cc4ncc[nH]4)CC3)nccc2n1)[C@H]1CCCc2cccnc21` [Example 49, (S)-N-({5-[4-(1H-imidazol-2-ylmethyl)piperazin-1-yl]imidazo[1,2-c]pyrimidin-2-yl}methyl)-N-methyl-5,6,7,8-tetrahydroquinolin-8-amine], with 2.8 nM. Then `CN(Cc1cn2c(N3CCN(S(=O)(=O)c4cccc(Cl)c4)CC3)nccc2n1)[C@H]1CCCc2cccnc21` [Example 42, (S)-N-({5-[4-(3-chlorobenzenesulfonyl)piperazin-1-yl]imidazo[1,2-c]pyrimidin-2-yl}methyl)-N-methyl-5,6,7,8-tetrahydroquinolin-8-amine], with 22700 nM; and `CN(Cc1cn2c(N3CCN(Cc4ccccc4O)CC3)nccc2n1)[C@H]1CCCc2cccnc21` [Example 59, 2-({4-[2-({methyl[(S)-5,6,7,8-tetrahydroquinolin-8-yl]amino}methyl)imidazo[1,2-c]pyrimidin-5-yl]piperazin-1-yl}methyl)phenol], with 25 nM. Then `CN(Cc1cn2c(N3CCN(CCCc4ccccc4)CC3)nccc2n1)[C@H]1CCCc2cccnc21` [Example 34, (S)-N-methyl-N-({5-[4-(3-phenylpropyl)piperazin-1-yl]imidazo[1,2-c]pyrimidin-2-yl}methyl)-5,6,7,8-tetrahydroquinolin-8-amine], with 120 nM; and `CN1CCN(c2nccc3nc(CN(C)[C@H]4CCCc5cccnc54)cn23)C[C@@H]1CO` [Example 98, ((R)-1-methyl-4-(2-((methyl((S)-5,6,7,8-tetrahydroquinolin-8-yl)amino)methyl)imidazo[1,2-c]pyrimidin-5-yl)piperazin-2-yl)methanol], with 1.9 nM. On to `CN(Cc1cn2c(N3CCN[C@H](CO)C3)nccc2n1)[C@H]1CCCc2cccnc21` [Example 86, ((S)-4-(2-((methyl((S)-5,6,7,8-tetrahydroquinolin-8-yl)amino)methyl)imidazo[1,2-c]pyrimidin-5-yl)piperazin-2-yl)methanol], for which the IC50 came to 1.7 nM. Regarding `CSc1nccc2nc(CN(C)[C@H]3CCCc4cccnc43)cn12` [Example 8, (S)—N-Methyl-N-((5-(methylthio)imidazo[1,2-c]pyrimidin-2-yl)methyl)-5,6,7,8-tetrahydroquinolin-8-amine], the IC50 came out at 89 nM.

For `CN(Cc1cn2c(N3CCN4CCC[C@H]4C3)nccc2n1)[C@H]1CCCc2cccnc21` [Example 76, (S)-N-((5-((S)-hexahydropyrrolo[1,2-a]pyrazin-2(1H)-yl)imidazo[1,2-c]pyrimidin-2-yl)methyl)-N-methyl-5,6,7,8-tetrahydroquinolin-8-amine], the IC50 is 6.4 nM. Consider `Cc1ccc(CN2CCN(c3nccc4nc(CN(C)[C@H]5CCCc6cccnc65)cn34)CC2)cc1` [Example 53, (S)-N-methyl-N-[(5-{4-[(4-methylphenyl)methyl]piperazin-1-yl}imidazo[1,2-c]pyrimidin-2-yl)methyl]-5,6,7,8-tetrahydroquinolin-8-amine], for which the IC50 worked out at 17 nM.

As for `CN(Cc1cn2c(N3CC4CNCC4C3)nccc2n1)[C@H]1CCCc2cccnc21` (stereo partly drawn) [Example 80, (8S)-N-((5-(hexahydropyrrolo[3,4-c]pyrrol-2(1H)-yl)imidazo[1,2-c]pyrimidin-2-yl)methyl)-N-methyl-5,6,7,8-tetrahydroquinolin-8-amine], the IC50 amounted to 23 nM. `CC(C)NC(=O)N1CCN(c2nccc3nc(CN(C)[C@H]4CCCc5cccnc54)cn23)CC1` [Example 44, 4-[2-({methyl[(S)-5,6,7,8-tetrahydroquinolin-8-yl]amino}methyl)imidazo[1,2-c]pyrimidin-5-yl]-N-(propan-2-yl)piperazine-1-carboxamide]: the IC50 was found to be 9360 nM.
